Results as given in patent publication US20040220205A1 (priority 2001, published 2004).
Values joined by “and” are separate entries in the source; they are usually repeats but may differ in a detail not shown here. Equal values may be shown once. Where a name gives a salt, the structure may show the parent alone.

Key:
[1] = tested on: dopamine release (striatum); assay: Microdialysis experiment (striatum) with one entero-coated tablet; format: in vivo; conditions: rat striatum microdialysis
Procedure: One entero-coated tablet prepared as described in Example 1 and containing about 5 mg of NPA hydrochloride was administered to a rat in the way described in Pharmacological Experiment 2 and a standard microdialysis was carried out.
Pharmacological Experiment 2 was repeated but using an entero-coated tablet containing about 5 mg of mono-pivaloyl-apomorphine base instead of NPA hydrochloride.
(§1) Pharmacological Experiment 2 was repeated but using an enterocoated tablet prepared as described in Example 3 containing about 1 mg of mono-pivaloyl-N-propyl-noraporphine (MPNPA) base instead of NPA hydrochloride.

rat = assay: Behavioural experiment - entero-coated pill; format: in vivo
Procedure: One entero-coated tablet prepared as described in Example 1 and containing about 5 mg of NPA hydrochloride was placed under anesthesia (isoflurane) in the throat of a rat and pushed down the throat with a blunt instrument. Within five minutes, the rat was awake and exploring the cage. After about 3 to 4 hours, the rat began to show dopaminergic stimulatory signs like sniffing, chewing, penile licking, grooming and stereotypy with rearing, locomotor activity, intense sniffing and also licking. This stereotypy lasted for more than 24 hours.
as §1

rats = assay: Behavioural experiment - injection into duodenum (with oral control); format: in vivo, rat; conditions: for duration of dopaminergic behavior: dur (total duration of action) / duration of dopaminergic behavior: intense stereotypy / duration of dopaminergic behavior: less intense stereotypy: rat, bolus injection into duodenum; for duration of dopaminergic behavior: intense stereotypy / duration of dopaminergic behavior: less intense stereotypy: period after injection
Excerpt: These rats had been operated 1-14 days before the experiment. A plastic tubing was introduced entering through the duodenum wall at about the mid section and bent in such a way that it had its duct directed downwards (i.e. aiming downstream towards the jejunum and being about 2 cm long). An experienced scientist observed the animals for the entire period of pharmacological activity, scoring the behavior and emphasizing the following details:
yawning, sniffing, chewing, licking, rearing, grooming, penile grooming, locomotor activity and stereotypy. The total duration of action where one or several of these behaviors were present was scored.

[2] = earlier reports on symmetric di-esters of aporphines; cited from earlier work
[3] = one entero-coated tablet containing about 5 mg NPA hydrochloride
[4] = one entero-coated tablet containing about 5 mg, pushed down the throat
[5] = control experiment, administered orally to the same rat, 4 mg/kg
[6] = one entero-coated tablet containing about 5 mg mono-pivaloyl-apomorphine base

CCCN1CCc2cccc3c2[C@H]1Cc1ccc(O)c(O)c1-3 [NPA hydrochloride, 6aR-(-)-N-propyl-norapomorphine]
dopamine release, maximal decrease [1, 3]: about 20% of control values
time of maximal decrease in dopamine release [1, 3]: after about four hours
duration of maximal decrease in dopamine release ([1]; one entero-coated tablet containing about 5 mg NPA hydrochloride, until the experiment was stopped): lasting for several hours
duration of stereotypy (rat; [4]): more than 24 hours
time until dopaminergic stimulatory signs began (rat; [4]): 3 to 4 h

CCCN1CCc2cccc3c2[C@H]1Cc1ccc(O)c(O)c1-3 [NPA, 6aR-(-)-N-propyl-norapomorphine]
duration of dopaminergic behavior: dur (total duration of action) (rats; 5.0 mg/kg): > 540 min

CN1CCc2cccc3c2C1Cc1ccc(OC(=O)C(C)(C)C)c(OC(=O)C(C)(C)C)c1-3 (stereo not drawn) [di-pivaloyl ester, di-pivaloyl esters of apomorphine]
activity compared with parent compound apomorphine [2]: much less active

CCCN1CCc2cccc3c2C1Cc1ccc(O)c(OC(=O)C(C)(C)C)c1-3 (stereo not drawn) [MPNPA, mono-pivaloyl-N-propyl-noraporphine]
period of continuous decrease of dopamine release ([1]; one entero-coated tablet containing about 1 mg MPNPA base): between one hour and four hours
dopamine release ([1]; one entero-coated tablet containing about 1 mg MPNPA base, at 18 hours after application of the pill): 80 % of controls
dopamine release, maximal decrease ([1]; one entero-coated tablet containing about 1 mg MPNPA base, at four hours): 30 % of controls
period of intense stereotypy (rat; one entero-coated tablet containing about 1 mg MPNPA base, observed during the microdialysis experiment): between four hours and eight hours

CN1CCc2cccc3c2[C@H]1Cc1ccc(O)c(O)c1-3 [Apomorphine Hydrochloride, apomorphine hydrochloride]
dopaminergic stimulation observed (rats; [5]): Very weak dopaminergic stimulation
time period in which dopaminergic effects were observed (rats; [5]): 10 to 20 min
duration of dopaminergic behavior: dur (total duration of action) (rats; 4.0 mg/kg): 90 min
duration of dopaminergic behavior: intense stereotypy (rats; 4.0 mg/kg): intense stereotypy (5-75); less intense min
duration of dopaminergic behavior: less intense stereotypy (rats; 4.0 mg/kg): 75 to 85 min
duration of dopaminergic behavior: dur (total duration of action) (rats; 5.0 mg/kg, hydrochloride): 95 min and 60 min
duration of dopaminergic behavior: less intense stereotypy (rats; 5.0 mg/kg, hydrochloride, 5 mg/kg): 40 to 90 min and 45 to 55 min

monopivaloyl-apomorphine [Mono-Piv-Apo]
duration of dopaminergic behavior: dur (total duration of action) (rats; 4.6 mg/kg): 120 min
duration of dopaminergic behavior: intense stereotypy (rats; 4.6 mg/kg): intense stereotypy (5-105); less intense min
duration of dopaminergic behavior: less intense stereotypy (rats; 4.6 mg/kg): 105 to 115 min
duration of dopaminergic behavior: dur (total duration of action) (rats; 5.9 mg/kg): 135 min and 120 min
duration of dopaminergic behavior: less intense stereotypy (rats; 5.9 mg/kg, 5.9 mg/kg): 105 to 130 min and 80 to 90 min
dopamine release at maximal decrease [1, 6]: 80 % of control values
maximal decrease of dopamine release [1, 6]: 20%
time after which dopamine release decreases [1, 6]: about 60 minutes
time until dopamine release is back to control values [1, 6]: after about eight hours
